Key:
[1] = target: T1, Gamma-aminobutyric acid receptor subunit alpha-1 (Rattus norvegicus, UniProt P62813)
[2] = target: T2, Alpha-2A adrenergic receptor (Homo sapiens, UniProt P08913); assay type: functional, cell-based
T2 sequence (P08913 whole entry): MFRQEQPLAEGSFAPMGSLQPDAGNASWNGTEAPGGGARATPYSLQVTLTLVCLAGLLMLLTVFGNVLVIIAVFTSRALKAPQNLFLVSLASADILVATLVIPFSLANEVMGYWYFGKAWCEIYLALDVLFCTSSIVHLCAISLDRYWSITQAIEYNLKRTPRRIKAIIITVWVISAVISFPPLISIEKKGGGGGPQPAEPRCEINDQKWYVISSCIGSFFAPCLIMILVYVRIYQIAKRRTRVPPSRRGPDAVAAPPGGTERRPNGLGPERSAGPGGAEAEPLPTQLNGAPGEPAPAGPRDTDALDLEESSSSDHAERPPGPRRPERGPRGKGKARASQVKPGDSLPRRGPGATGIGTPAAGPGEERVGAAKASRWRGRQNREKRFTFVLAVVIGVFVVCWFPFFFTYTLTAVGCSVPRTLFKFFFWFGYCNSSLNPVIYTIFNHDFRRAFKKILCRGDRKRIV

[3] = target: T3, Glucocorticoid receptor (Homo sapiens, UniProt P04150)
T3 sequence (P04150 whole entry): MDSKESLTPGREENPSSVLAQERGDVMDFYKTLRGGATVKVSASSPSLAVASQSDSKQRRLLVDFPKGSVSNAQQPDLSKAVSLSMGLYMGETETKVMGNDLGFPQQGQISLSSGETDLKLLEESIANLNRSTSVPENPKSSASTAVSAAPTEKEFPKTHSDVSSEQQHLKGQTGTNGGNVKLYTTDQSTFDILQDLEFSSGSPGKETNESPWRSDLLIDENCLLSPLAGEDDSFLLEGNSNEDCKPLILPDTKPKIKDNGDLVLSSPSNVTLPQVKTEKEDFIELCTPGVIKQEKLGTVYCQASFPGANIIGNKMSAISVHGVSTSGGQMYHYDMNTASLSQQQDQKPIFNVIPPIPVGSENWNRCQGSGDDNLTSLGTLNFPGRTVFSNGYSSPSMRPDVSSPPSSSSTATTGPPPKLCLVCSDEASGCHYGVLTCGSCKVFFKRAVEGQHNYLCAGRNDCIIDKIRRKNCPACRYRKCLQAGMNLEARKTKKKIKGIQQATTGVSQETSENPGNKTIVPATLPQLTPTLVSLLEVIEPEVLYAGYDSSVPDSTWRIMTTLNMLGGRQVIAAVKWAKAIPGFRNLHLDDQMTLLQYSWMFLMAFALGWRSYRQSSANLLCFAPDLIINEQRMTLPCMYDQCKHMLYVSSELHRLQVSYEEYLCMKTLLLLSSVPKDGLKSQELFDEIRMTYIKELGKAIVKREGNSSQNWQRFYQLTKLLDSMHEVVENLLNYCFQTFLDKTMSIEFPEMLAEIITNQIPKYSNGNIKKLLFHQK

[4] = target: T4, Alpha-1A adrenergic receptor (Homo sapiens, UniProt P35348); assay type: functional, cell-based
T4 sequence (P35348 whole entry): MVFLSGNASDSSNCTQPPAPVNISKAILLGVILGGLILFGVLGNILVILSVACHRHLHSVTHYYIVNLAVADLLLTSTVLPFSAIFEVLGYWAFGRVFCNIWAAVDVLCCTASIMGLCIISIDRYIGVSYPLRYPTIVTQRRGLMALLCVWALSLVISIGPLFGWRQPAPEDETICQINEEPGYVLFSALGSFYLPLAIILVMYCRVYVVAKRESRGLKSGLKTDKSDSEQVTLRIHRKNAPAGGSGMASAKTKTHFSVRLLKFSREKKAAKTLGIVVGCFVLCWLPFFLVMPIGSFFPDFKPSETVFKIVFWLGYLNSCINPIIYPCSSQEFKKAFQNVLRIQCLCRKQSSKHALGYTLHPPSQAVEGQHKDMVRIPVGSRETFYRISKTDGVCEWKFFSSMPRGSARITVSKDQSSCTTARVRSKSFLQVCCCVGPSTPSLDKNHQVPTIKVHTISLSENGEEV

[5] = target: Mu-type opioid receptor (Homo sapiens, UniProt P35372); assay: biochemical; assay type: functional
Sequence of Mu-type opioid receptor (P35372 whole entry): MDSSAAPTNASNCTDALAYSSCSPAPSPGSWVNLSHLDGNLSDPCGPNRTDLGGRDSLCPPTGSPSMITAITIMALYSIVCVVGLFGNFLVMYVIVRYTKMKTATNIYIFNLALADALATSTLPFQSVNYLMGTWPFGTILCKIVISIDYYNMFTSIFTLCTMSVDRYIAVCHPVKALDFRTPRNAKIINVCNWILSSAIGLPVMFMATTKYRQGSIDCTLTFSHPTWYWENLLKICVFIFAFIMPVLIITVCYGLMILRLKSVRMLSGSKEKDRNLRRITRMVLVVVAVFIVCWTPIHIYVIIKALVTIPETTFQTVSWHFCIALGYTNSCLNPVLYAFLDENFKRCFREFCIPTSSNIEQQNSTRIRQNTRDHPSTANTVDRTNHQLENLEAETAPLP

[6] = target: T1, Gamma-aminobutyric acid receptor subunit alpha-1; assay type: functional
[7] = target: Vasopressin V1a receptor (Homo sapiens, UniProt P37288)
Sequence of Vasopressin V1a receptor (P37288 whole entry): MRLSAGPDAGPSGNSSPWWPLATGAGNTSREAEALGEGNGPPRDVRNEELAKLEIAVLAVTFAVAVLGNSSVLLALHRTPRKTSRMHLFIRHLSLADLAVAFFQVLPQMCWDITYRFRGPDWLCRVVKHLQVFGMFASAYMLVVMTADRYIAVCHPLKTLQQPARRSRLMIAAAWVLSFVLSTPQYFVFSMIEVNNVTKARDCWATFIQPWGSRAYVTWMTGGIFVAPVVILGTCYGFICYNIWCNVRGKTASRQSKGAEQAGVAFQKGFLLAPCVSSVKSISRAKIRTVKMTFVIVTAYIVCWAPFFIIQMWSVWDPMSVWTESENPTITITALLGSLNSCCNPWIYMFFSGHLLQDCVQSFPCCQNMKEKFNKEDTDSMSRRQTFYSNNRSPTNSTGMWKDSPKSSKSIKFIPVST

[8] = target: Motilin receptor (Homo sapiens, UniProt O43193)
Sequence of Motilin receptor (O43193 whole entry): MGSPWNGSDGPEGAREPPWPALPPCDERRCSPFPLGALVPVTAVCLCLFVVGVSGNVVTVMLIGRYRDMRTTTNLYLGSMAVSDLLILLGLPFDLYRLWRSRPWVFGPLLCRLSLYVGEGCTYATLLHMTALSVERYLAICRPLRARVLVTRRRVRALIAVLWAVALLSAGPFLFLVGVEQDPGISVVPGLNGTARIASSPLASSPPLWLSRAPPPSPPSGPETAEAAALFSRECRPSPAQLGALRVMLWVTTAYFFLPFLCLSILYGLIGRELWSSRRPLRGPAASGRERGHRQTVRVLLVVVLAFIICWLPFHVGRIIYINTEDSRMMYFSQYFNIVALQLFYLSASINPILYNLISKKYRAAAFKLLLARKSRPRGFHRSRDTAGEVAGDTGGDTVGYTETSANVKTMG

[9] = target: T5, 5-hydroxytryptamine receptor 2C (Homo sapiens, UniProt P28335)
T5 sequence (P28335 whole entry): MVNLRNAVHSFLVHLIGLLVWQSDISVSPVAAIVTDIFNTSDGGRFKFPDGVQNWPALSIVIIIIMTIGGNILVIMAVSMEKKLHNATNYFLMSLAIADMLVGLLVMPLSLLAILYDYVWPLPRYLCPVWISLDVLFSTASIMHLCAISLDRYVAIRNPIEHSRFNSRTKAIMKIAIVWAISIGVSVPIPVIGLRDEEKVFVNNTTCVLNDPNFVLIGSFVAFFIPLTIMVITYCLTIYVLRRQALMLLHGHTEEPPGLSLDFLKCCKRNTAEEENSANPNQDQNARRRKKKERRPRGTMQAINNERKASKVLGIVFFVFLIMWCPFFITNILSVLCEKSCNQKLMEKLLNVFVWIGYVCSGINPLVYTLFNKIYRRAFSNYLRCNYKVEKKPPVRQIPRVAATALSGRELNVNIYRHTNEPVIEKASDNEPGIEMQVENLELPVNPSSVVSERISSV

[10] = target: T6, Alpha-2C adrenergic receptor (Homo sapiens, UniProt P18825); assay type: functional
T6 sequence (P18825 whole entry): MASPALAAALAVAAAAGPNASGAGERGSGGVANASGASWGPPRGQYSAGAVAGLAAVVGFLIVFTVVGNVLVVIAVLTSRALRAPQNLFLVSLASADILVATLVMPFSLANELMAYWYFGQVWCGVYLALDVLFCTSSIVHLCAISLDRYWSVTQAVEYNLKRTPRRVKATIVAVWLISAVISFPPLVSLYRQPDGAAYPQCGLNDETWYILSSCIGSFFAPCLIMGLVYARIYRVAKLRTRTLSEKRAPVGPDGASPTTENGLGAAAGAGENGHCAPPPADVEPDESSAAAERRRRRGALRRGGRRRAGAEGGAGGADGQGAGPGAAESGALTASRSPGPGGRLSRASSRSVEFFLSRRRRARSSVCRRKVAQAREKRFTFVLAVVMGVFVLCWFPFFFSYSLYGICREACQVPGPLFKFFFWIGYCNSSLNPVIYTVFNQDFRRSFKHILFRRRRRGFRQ
Note: assay procedure not described here.

T1 sequence (P62813 whole entry): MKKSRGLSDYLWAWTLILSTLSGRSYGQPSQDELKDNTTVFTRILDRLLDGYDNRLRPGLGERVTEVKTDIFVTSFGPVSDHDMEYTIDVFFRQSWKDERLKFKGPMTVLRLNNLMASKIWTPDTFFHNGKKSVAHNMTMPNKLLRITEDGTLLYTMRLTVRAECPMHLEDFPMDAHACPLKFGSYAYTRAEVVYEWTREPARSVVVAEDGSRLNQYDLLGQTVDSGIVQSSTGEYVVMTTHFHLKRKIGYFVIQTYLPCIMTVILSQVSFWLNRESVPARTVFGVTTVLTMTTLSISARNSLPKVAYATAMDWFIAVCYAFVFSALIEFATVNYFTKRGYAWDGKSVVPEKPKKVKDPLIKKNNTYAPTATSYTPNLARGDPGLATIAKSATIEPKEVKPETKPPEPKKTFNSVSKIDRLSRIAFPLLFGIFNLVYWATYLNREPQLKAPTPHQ

Compound	AC50 [1] [µM]	AC50 [2] [µM]	AC50 [3] [µM]	AC50 [4] [µM]	AC50 [5] [µM]	AC50 [6] [µM]	AC50 [7] [µM]	AC50 [8] [µM]	AC50 [9] [µM]	AC50 [10] [µM]
O=C(O)c1ccccc1Nc1cc(Cl)ccc1C(=O)O [LOBENZARIT]	> 30	> 30	> 30	> 30	> 30	> 30	> 30	> 30	> 30	> 30
C#CCOc1ccc(N)cc1C(=O)NCCCC [PARSALMIDE]	> 30	> 30	> 30	–	> 30	> 30	> 30	> 30	> 30	> 30
CCN1CCCC1CNC(=O)c1cc(S(=O)(=O)CC)c(N)cc1OC (stereo not drawn) [AMISULPRIDE]	> 30	13	> 30	> 30	> 30	> 30	–	–	> 30	0.71
C=C[C@@]1(C)CC(=O)[C@]2(O)[C@@]3(C)[C@@H](O)CCC(C)(C)[C@@H]3[C@H](O)[C@H](OC(C)=O)[C@@]2(C)O1 [COLFORSIN]	> 30	4.3	> 30	> 30	> 30	> 30	> 30	> 30	> 30	> 30
COc1ccc(-c2noc(CC(=O)O)c2-c2ccc(OC)cc2)cc1 [MOFEZOLAC]	> 30	> 30	> 30	> 30	> 30	> 30	> 30	> 30	> 30	> 30
NC(=O)CN1CCCC1=O	> 30	> 30	> 30	> 30	> 30	> 30	–	> 30	> 30	> 30
CC(=O)[C@]1(O)Cc2c(O)c3c(c(O)c2[C@@H](O[C@H]2C[C@H](N)[C@H](O)[C@H](C)O2)C1)C(=O)c1ccccc1C3=O [IDARUBICIN]	> 30	–	0.11	–	> 30	> 30	> 30	> 10	9.3	–
C[N@+]1(CCF)[C@@H]2CC[C@H]1C[C@@H](OC(=O)C(O)(c1ccccc1)c1ccccc1)C2	> 30	> 30	> 30	> 30	> 30	> 30	> 30	> 30	> 30	> 30
COc1ccc2nc3cc(Cl)ccc3c(Nc3cc(CN4CCCC4)c(O)c(CN4CCCC4)c3)c2n1 [PYRONARIDINE]	> 30	> 30	> 30	> 30	> 30	> 30	> 30	> 30	> 30	21
CCCCCC(=O)O[C@]1(C(C)=O)CC[C@H]2[C@@H]3CCC4=CC(=O)CC[C@]4(C)[C@H]3CC[C@@]21C [HYDROXYPROGESTERONE CAPROATE]	> 30	> 30	0.007	> 30	> 30	> 30	> 30	28.1	> 30	> 30
NC1CCN(c2nc3c(cc2F)c(=O)c(C(=O)O)cn3-c2ccc(F)cc2F)C1 (stereo not drawn) [TOSUFLOXACIN]	–	> 30	> 30	> 30	> 30	> 30	–	> 30	> 30	> 30
CCN(CC)CCNC(=O)c1cc(S(C)(=O)=O)ccc1OC [TIAPRIDE]	> 30	> 30	> 30	> 30	> 30	> 30	> 30	> 30	> 30	> 30
CC(=O)O[C@H](CC(=O)[O-])C[N+](C)(C)C [ACETYLCARNITINE]	> 30	> 30	> 30	> 30	> 30	> 30	> 30	> 30	> 30	> 30
C=C1/C(=C\C=C2/CCC[C@]3(C)[C@@H]([C@H](C)/C=C/[C@@H](O)C4CC4)CC[C@@H]23)C[C@@H](O)C[C@@H]1O [CALCIPOTRIENE]	> 30	> 30	> 30	> 30	> 30	> 30	> 30	> 30	> 30	> 30
O=C(O)CCNC(=O)c1ccccc1 [BETAMIPRON]	> 30	> 30	> 30	> 30	> 30	> 30	–	> 30	> 30	> 30
CCCCCCCCCCCCCCCCCCCCCC(=O)Nc1ccn([C@@H]2O[C@H](CO)[C@@H](O)[C@@H]2O)c(=O)n1 [ENOCITABINE]	> 30	> 30	> 30	> 30	> 30	> 30	> 30	> 30	–	> 30
CC(=O)SC[C@@H](C)C(=O)N1CCC[C@H]1C(=O)N[C@@H](Cc1ccccc1)C(=O)O	> 30	> 30	–	> 30	> 30	> 30	> 30	> 30	> 30	> 30

Reference: ChEMBL document CHEMBL5291721, “A preclinical secondary pharmacology resource illuminates target-adverse drug reaction associations of marketed drugs” (Nat Commun, 2023)
